Data as given in US10168342B2, “Lipid probes and uses thereof” (THE SCRIPPS RESEARCH INSTITUTE, priority 2015, dated 2019).
Like-named read-outs stand apart in the source and are kept apart here.

Experiments:
[1] = target: T1, AEA-DA lipid probe targets in Neuro2a cells (Mus musculus, UniProt Q3UEB3)
T1 sequence (Q3UEB3 1-564): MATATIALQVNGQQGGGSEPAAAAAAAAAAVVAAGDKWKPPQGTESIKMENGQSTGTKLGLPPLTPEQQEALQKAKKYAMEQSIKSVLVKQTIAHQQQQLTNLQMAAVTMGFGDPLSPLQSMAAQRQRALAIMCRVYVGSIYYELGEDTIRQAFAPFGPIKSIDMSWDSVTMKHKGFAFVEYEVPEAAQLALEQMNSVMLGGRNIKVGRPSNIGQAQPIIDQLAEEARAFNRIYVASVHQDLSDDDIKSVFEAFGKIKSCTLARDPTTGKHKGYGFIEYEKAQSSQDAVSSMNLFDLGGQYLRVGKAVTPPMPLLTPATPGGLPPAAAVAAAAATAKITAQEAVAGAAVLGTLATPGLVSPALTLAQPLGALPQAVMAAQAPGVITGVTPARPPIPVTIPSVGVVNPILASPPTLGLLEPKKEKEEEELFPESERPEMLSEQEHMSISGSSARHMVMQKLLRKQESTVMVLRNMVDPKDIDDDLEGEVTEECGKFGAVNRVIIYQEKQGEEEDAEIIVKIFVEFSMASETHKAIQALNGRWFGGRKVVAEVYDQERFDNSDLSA

[2] = target: AEA-DA lipid probe targets in Neuro2a cells (Mus musculus, UniProt P29391)
AEA-DA lipid probe targets in Neuro2a cells (Mus musculus, UniProt P29391), sequence (P29391 whole entry): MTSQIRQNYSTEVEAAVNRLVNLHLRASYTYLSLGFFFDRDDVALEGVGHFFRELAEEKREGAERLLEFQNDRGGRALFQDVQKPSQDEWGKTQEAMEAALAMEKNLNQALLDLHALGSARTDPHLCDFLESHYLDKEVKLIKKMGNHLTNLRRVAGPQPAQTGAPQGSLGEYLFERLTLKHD

[3] = target: T2, AEA-DA lipid probe targets in Neuro2a cells (Mus musculus, UniProt Q8BJ71)
T2 sequence (Q8BJ71 1-819): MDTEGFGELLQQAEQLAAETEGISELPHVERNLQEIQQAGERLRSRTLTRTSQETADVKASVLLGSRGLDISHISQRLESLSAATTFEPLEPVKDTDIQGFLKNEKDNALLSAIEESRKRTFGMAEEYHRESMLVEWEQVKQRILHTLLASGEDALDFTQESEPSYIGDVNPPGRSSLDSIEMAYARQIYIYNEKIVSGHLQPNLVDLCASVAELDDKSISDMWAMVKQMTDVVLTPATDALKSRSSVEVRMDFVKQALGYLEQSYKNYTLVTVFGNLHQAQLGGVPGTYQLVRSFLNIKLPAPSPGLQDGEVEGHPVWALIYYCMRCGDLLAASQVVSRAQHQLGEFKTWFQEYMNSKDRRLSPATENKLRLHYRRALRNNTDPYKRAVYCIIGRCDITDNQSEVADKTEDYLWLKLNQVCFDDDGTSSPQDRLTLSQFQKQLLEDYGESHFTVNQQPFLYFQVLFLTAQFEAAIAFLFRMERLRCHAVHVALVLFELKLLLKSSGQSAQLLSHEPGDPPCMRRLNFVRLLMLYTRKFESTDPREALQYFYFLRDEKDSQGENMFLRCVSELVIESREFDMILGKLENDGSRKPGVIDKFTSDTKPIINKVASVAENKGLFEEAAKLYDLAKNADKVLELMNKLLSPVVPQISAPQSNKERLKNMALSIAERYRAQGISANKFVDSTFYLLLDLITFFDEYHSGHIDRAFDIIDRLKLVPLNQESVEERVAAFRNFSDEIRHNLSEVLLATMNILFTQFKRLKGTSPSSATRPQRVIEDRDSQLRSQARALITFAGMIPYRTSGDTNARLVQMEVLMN

[4] = target: AEA-DA lipid probe targets in Neuro2a cells (Mus musculus, UniProt Q9QUJ7)
AEA-DA lipid probe targets in Neuro2a cells (Mus musculus, UniProt Q9QUJ7), sequence (Q9QUJ7 whole entry): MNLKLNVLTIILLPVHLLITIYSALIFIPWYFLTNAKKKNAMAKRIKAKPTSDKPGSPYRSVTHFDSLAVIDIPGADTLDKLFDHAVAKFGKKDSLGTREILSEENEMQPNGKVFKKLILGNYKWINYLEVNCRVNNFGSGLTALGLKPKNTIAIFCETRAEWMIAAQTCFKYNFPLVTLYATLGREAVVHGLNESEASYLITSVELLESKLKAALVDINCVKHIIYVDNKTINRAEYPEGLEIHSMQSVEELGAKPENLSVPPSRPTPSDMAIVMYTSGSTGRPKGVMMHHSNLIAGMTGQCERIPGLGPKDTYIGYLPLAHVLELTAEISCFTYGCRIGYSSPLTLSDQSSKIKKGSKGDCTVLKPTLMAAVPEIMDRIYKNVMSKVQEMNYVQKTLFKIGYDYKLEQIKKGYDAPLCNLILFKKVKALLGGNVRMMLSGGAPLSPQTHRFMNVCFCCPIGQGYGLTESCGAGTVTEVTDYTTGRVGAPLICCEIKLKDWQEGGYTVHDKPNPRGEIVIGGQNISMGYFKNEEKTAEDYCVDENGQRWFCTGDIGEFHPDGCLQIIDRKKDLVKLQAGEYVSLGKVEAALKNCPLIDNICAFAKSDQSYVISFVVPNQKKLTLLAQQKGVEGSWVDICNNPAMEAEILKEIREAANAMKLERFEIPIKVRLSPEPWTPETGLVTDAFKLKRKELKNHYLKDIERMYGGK

[5] = target: T3, AEA-DA lipid probe targets in Neuro2a cells (Mus musculus, UniProt Q8VBZ3)
T3 sequence (Q8VBZ3 1-664): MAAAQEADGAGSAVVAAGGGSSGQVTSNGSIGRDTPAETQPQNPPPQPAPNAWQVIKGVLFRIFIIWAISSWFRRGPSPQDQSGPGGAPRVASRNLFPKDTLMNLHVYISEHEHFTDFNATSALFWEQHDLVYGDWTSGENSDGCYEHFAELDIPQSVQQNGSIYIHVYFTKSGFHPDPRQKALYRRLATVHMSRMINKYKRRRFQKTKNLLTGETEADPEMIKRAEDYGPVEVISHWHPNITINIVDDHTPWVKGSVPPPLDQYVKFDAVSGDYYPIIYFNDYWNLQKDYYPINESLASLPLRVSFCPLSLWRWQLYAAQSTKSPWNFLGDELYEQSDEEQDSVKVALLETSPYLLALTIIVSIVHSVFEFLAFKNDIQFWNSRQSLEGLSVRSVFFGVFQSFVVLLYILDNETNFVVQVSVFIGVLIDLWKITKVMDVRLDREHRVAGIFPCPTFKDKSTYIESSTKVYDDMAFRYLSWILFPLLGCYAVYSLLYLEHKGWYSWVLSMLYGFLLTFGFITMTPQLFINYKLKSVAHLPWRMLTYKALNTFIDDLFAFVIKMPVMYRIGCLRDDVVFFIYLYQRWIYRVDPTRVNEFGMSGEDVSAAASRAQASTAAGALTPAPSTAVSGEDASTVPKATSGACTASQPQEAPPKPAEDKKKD

[6] = target: T4, AEA-DA lipid probe targets in Neuro2a cells (Mus musculus, UniProt Q8R404)
T4 sequence (Q8R404 1-119): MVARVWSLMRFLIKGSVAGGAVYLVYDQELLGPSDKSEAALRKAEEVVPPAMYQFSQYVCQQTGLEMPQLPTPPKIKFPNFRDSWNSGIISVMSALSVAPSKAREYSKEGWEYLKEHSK

[7] = target: T5, AEA-DA lipid probe targets in Neuro2a cells (Mus musculus, UniProt O88531)
T5 sequence (O88531 28-306): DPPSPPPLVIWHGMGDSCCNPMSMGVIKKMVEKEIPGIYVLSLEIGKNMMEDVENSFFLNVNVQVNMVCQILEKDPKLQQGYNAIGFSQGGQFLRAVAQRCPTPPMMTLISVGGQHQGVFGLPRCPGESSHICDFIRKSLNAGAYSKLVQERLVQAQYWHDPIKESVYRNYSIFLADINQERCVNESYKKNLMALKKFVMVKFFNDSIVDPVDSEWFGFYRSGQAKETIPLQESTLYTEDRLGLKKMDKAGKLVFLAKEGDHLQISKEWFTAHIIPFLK

| SMILES | SILAC ratio Puf60 ([1]; competitor 25 μM) | SILAC ratio Ftl1 ([2]; competitor 25 μM) | SILAC ratio Nup93 ([3]; competitor 25 μM) | SILAC ratio Acsl4 ([4]; competitor 25 μM) | SILAC ratio, Clptm1 ([5]; competitor 25 μM) | SILAC ratio, Qil1 ([6]; competitor 25 μM) | SILAC ratio Ppt1 ([7]; competitor 25 μM) | also measured |
| --- | --- | --- | --- | --- | --- | --- | --- | --- |
| CCCCC/C=C\C/C=C\C/C=C\C/C=C\CCCC(=O)NCCO [AEA, anandamide, reference compound] | – | – | – | – | – | – | – | SILAC ratio Puf60 ([1]; competitor 200 μM): 1.3; SILAC ratio Ftl1 ([2]; competitor 200 μM): 1.6; SILAC ratio Nup93 ([3]; competitor 200 μM): 1.2; SILAC ratio Acsl4 ([4]; competitor 200 μM): 1.6; SILAC ratio, Clptm1 ([5]; competitor 200 μM): 2.3; SILAC ratio, Qil1 ([6]; competitor 200 μM): 1.9; SILAC ratio Ppt1 ([7]; competitor 200 μM): 1.1 |
| O=C(/C=C/c1cccnc1)NCCCCC1CCN(C(=O)c2ccccc2)CC1 [FK-866, reference compound] | 1.3 | 1.6 | 1.2 | 1.3 | 1.1 | 1.2 | 0.8 | – |
| CN1CCN(C(=O)c2c(-c3ccccc3)c3cc([N+](=O)[O-])ccc3n2C)CC1 [KML110, (1-Methyl-5-nitro-3-phenyl-1H-indol-2-yl)(4-methylpiperazin-1-yl)methanone] | 1.3 | 0.9 | 1.4 | 1.3 | 1.5 | 1.5 | 1.2 | – |
| CN1CCN(C(=O)c2[nH]c3ccc([N+](=O)[O-])cc3c2-c2ccccc2)CC1 [MJN228, (4-Methylpiperazin-1-yl)(5-nitro-3-phenyl-1H-indol-2-yl)methanone] | 1.2 | – | 1.1 | 1.4 | 1.6 | 1.5 | 1.5 | SILAC ratio Puf60 ([1]; competitor 10 μM): 1.4; SILAC ratio Puf60 ([1]; competitor 50 μM): 1.0; SILAC ratio Puf60 ([1]; competitor 100 μM): 1.2; SILAC ratio Ftl1 ([2]; competitor 100 μM): 1.0; SILAC ratio Nup93 ([3]; competitor 10 μM): 0.9; SILAC ratio Nup93 ([3]; competitor 50 μM): 1.0; SILAC ratio Nup93 ([3]; competitor 100 μM): 1.1; SILAC ratio Acsl4 ([4]; competitor 10 μM): 1.2; SILAC ratio Acsl4 ([4]; competitor 50 μM): 1.6; SILAC ratio Acsl4 ([4]; competitor 100 μM): 1.7; SILAC ratio, Clptm1 ([5]; competitor 10 μM): 1.3; SILAC ratio, Clptm1 ([5]; competitor 50 μM): 1.6; SILAC ratio, Clptm1 ([5]; competitor 100 μM): 2.5; SILAC ratio, Qil1 ([6]; competitor 10 μM): 1.2; SILAC ratio, Qil1 ([6]; competitor 50 μM): 1.7; SILAC ratio, Qil1 ([6]; competitor 100 μM): 2.5; SILAC ratio Ppt1 ([7]; competitor 10 μM): 1.5; SILAC ratio Ppt1 ([7]; competitor 50 μM): 2.1; SILAC ratio Ppt1 ([7]; competitor 100 μM): 4.3 |
| C=CCN(C)CCCCCCOc1ccc(C(=O)c2ccc(Br)cc2)c(F)c1 [Ro 48-8071, reference compound] | 1.0 | 0.4 | 0.9 | 1.1 | 1.2 | 1.2 | 1.6 | – |
